“Also recorded” adds a separate entry of the source. Read-outs that look alike come from different tables or passages of the source.
Experiments:
[1] = system: chronic constriction injury (CCI) neuropathic pain model; experiment: Mechanical allodynia (Von Frey) in chronic constriction injury (Bennett) model, Example 3; type: in vivo, rat; conditions: Day 14 post-surgery, 30 and 90 min post-dosing, vs vehicle
Description: Neuropathic pain affects approximately 1% of the U.S. population and is extremely difficult to manage. Usually the pain is chronic, severe, and fails to respond to traditional analgesic drugs. Fortunately, one of the most widely used animal models for neuropathic pain closely mimics the pain endured by patients. In this model, termed the chronic constriction injury (CCI) or Bennett model, four closely spaced ligatures tied loosely around the sciatic nerve of a rat cause demyelination of the nerve, resulting in spontaneous pain, such as prolonged paw elevation and licking of the ligated paw. Induced pain in the nerve-injured limb can be measured using Von Frey filaments, applied to the plantar surface of the paw to test for responses to non-noxious tactile stimulation. The onset of this heightened mechanical allodynia is quite rapid and it persists for 2-3 months.
In this example, the CCI ligation was performed on the left sciatic nerve in three groups of rats. Von Frey testing of mechanical allodynia was performed on both paws on Day 14 to determine the analgesic efficacy of the test agent. The testing was performed pre-dosing, and at 30 and 90 minutes post-dosing.
The animals were allocated to treatment groups based on their baseline Von Frey data, measured prior to surgery. The mechanical allodynia scores for each group were reviewed to ensure that the mean values and standard deviation satisfied the assumption of homogeneity. Thirty-one (31) animals were used on the study. Thirty (30) animals were initially allocated to treatment groups, and the remaining […] animals were held as spares. One spare was then used to replace an animal that died during surgery. Body weights were taken one day after arrival, prior to surgery and weekly thereafter. On Day 14, after the final behavioral testing, the animals were euthanized by carbon dioxide asphyxiation. No necropsy was performed nor tissues collected.
All surgeries were performed under aseptic conditions. Prior to surgery, the rats were sedated using inhaled Isoflurane anesthetic. The left leg was shaved and prepped. The common sciatic nerve was exposed and freed from adherent tissue at mid-thigh by separating the muscle (biceps femoris) by blunt dissection. Proximal to the sciatic nerve's trifurcation; approximately 7 mm of nerve was freed from the adhering tissue. Four ligatures, approximately 1 mm apart, were tied loosely around the nerve using 6.0 chromic catgut. Each of the sutures was tied loosely with a square knot around the sciatic nerve. A brief twitch in the muscle surrounding the exposure was an indicator of the desired degree of constriction. The site was then closed using the appropriate suture material. Post-operative care and observations were carried out until the animal recovered consciousness.
The animals underwent a series of behavioral testing for neuropathic pain assessment. A Von Frey test of mechanical allodynia was performed on both hind paws prior to surgery to achieve a baseline measurement for randomization and then following surgery on Day 14 (test article efficacy) according to Table 4.
Twice prior to surgery, the animals were acclimated to the allodynia apparatus. This habituated the rats to the testing devices to familiarize them with the apparatus so they were calm at the time of testing. […] Animals were first habituated to the testing chamber so that they were calm enough for their pain threshold to be assessed. […]

TLR9 = biological target: T1, TLR9 (Homo sapiens, UniProt Q9NR96); experiment: TLR9 screening of (+)-morphinan library, SEAP reporter in HEK293 cells expressing TLR9; type: cell-based; conditions: activator ODN2006; for OD 650 nm (mean ± sd): control (no activator) 0.14, activator 1.42 OD
T1 construct: expressed in transfected cells; host or cells: HEK293
T1 sequence (Q9NR96 26-1032): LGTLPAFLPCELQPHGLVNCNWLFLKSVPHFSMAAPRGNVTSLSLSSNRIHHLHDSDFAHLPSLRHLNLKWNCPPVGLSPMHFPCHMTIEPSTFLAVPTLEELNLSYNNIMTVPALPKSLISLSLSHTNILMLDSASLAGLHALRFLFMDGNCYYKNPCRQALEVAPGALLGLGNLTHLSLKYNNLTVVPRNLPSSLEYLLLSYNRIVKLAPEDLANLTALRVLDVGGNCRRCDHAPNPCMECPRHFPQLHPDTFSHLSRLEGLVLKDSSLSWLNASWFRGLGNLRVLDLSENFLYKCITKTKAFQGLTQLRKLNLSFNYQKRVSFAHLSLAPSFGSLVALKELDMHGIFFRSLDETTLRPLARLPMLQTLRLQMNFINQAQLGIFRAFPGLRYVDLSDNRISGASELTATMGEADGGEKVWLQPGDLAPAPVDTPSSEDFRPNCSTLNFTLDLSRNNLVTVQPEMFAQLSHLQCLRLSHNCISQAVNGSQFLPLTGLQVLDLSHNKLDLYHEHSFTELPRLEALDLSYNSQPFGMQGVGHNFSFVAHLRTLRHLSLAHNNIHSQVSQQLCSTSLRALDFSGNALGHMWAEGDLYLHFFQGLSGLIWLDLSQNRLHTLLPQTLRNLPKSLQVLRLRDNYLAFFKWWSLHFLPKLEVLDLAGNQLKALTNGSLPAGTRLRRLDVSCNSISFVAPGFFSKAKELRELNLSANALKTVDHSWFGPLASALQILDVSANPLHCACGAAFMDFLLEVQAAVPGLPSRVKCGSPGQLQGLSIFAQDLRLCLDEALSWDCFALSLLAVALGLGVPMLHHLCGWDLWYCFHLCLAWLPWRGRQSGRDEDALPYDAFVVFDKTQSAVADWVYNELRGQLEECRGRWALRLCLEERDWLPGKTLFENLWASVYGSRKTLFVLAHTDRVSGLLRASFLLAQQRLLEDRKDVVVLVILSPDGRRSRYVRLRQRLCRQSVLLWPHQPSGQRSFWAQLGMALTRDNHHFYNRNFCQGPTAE
In short: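 HEK293 cells expressing TLR9 with an NF-κB-inducible SEAP reporter were preincubated with compound at 10 μM and 100 nM for 30 min at 37 °C, then stimulated with ODN2006. SEAP was read as OD 650 nm after 16-20 h, in triplicate.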

[2] = system: APAP-induced liver toxicity; experiment: Acetaminophen (APAP)-induced hepatotoxicity model; type: in vivo, mouse; conditions: APAP 500 mg/Kg ip, 12 hours post-APAP; for Protection from APAP-induced toxicity: test doses and timing per Table 6; for Liver histology scores (necrosis and hemorrhage): vs APAP alone
Method: For this, APAP-induced liver toxicity was induced in male C57BL/6 mice aged between 8-10 weeks by a single intraperitoneal (ip) injection of APAP in PBS at a dose of 500 mg/Kg (Imaeda et al. (2009) J. Clin. Invest. 119(2):305-314). The ability of (+)-morphinans to reduce liver toxicity was tested in the following groups:
The (+)-morphinan (or PBS) was either administered as a single subcutaneous (sc) or ip injection concurrent with the APAP injection or one hour prior to the APAP injection.
The mice were sacrificed 12 hours post-APAP treatment. Liver samples were stained with H&E and analyzed for signs of necrosis and hemorrhage. Histology scores were assigned using the standard rating scale. The levels of serum alanine transaminase (ALT) were also measured in each animal using a standard assay.

[3] = system: Experimental Autoimmune Encephalomyelitis (EAE); conditions: for EAE clinical scores: bid for 20 days, Cmpd II-98 5 mg/kg sc, others 20 mg/kg sc, Prednisolone 4.5 mg/kg ip, vs vehicle control
[4] = system: chronic constriction injury (CCI) neuropathic pain model; experiment: Reversal of allodynia (von Frey) in CCI rats, 4 days of dosing, Example 4; type: in vivo, rat; conditions: for Reversal of allodynia (von Frey): i.p. once a day for 4 days from day 14, tested 3 hrs after dosing, ultra low to high dose
Method: Allodynia was induced in a group of (male, Sprague-Dawley) rats essentially as described above in Example 3. Prior to surgery, animals were tested to establish their baseline von Frey scores. Any animal with a Log absolute von Frey score lower than 4.65 on either leg was excluded from the study. CCI surgery was performed on the left sciatic nerve as detailed above. On days 4 and 14 post-surgery, the animals were tested using the von Frey test of mechanical allodynia to ensure that allodynia was established.
Beginning at about day 14 post-surgery, the animals were dosed once a day for 4 days. Compounds II-25, II-93, II-62, and III-2 were tested. All drugs were administered intraperitoneally (i.p.). Allodynia was tested prior to and again 3 hrs after each dosing. Drug administration and testing was done blindly. After the 4th day of dosing, the animals were sacrificed, cardiac perfusion was performed, and spinal cords were removed and stored for further analysis.
All data were analyzed using 2-way ANOVA's with Bonferroni's post hoc test compared to saline unless otherwise stated. Area under curve (AUC) was calculated using Graphpad Prism and comparisons were made using 1-way ANOVA with Dunnet's post hoc test.

[5] = HEK293, read-out: % Inhibition (mean), 100 nM
[6] = HEK293, read-out: % Inhibition (mean), 10 μM

| SMILES | OD 650 nm (mean ± sd) (TLR9; 100 nM) [OD] | OD 650 nm (mean ± sd) (TLR9; 10 μM) [OD] | inhibition at 0.1 µM (TLR9; [5]) [%] | inhibition at 10 µM (TLR9; [6]) [%] | Protection from APAP-induced toxicity [2] | Liver histology scores (necrosis and hemorrhage) [2] | EAE clinical scores [3] | Reversal of allodynia (von Frey) ([4]; vs saline) | Animals sleepier/sedated on at least one post dosing occasion ([4]; low dose, i.p.) | further results |
| --- | --- | --- | --- | --- | --- | --- | --- | --- | --- | --- |
| NCC1(CC(=O)O)CCCCC1 [Gabapentin] | – | – | – | – | – | – | – | – | – | Mechanical allodynia (50% allodynia threshold), left (affected) paw ([1]; (+)-naloxone.HCl 66.7 mg/kg S.C., Gabapentin 100 mg/kg I.P.): effective at significantly reducing the allodynia; Mechanical allodynia (50% allodynia threshold), right (unaffected) paw [1]: higher threshold |
| COc1ccc2c3c1O[C@@H]1C(=O)CC[C@@H]4[C@H](C2)N(CC2CC2)CC[C@@]314 [II-24] | 0.65 ± 0.04 | 0.09 ± 0.01 | 54 | 94 | None of compounds II-24, II-93, or III-2 provided any protection | about the same as those only exposed to APAP | did not improve EAE | – | – | – |
| C=CCN1CC[C@@]23c4c5ccc(OC)c4OC2C(NCCC)CCC3C1C5 (some centres unmarked) [II-93] | 0.12 ± 0.00 | 0.11 ± 0.01 | 91 | 92 | None of compounds II-24, II-93, or III-2 provided any protection | about the same as those only exposed to APAP | – | significantly reversed allodynia in the ipsilateral paw after the high dose only; also recorded: effective at reversing mechanical allodynia | one | Animals sleepier/sedated on at least one post dosing occasion ([4]; high dose, i.p.): 7; Local observations (swelling, irritation) ([4]; high dose, i.p.): swelling of the ipsilateral paw; Area under the curve (AUC) analysis of allodynia ([4]; i.p. once a day for 4 days, vs saline): significant reversal of allodynia in the ipsilateral paw; Animals sleepier/sedated on at least one post dosing occasion ([4]; medium dose, i.p.): two |
| COC1=CCC2[C@@H]3Cc4ccc(OC)c5c4[C@]2(CCN3)[C@@H]1O5 (some centres unmarked) [II-98] | 1.02 ± 0.02 | 0.56 ± 0.03 | 28 | 60 | – | – | – | – | – | Acute toxicity ([3]; 20 mg/kg bid, subcutaneous): acute toxicity was observed |
| C=CCN1CCc2cc(OC)ccc2[C@H]1Cc1ccc(OC)c(O)c1 [III-2] | 1.13 ± 0.02 | 0.42 ± 0.04 | – | – | None of compounds II-24, II-93, or III-2 provided any protection | about the same as those only exposed to APAP | – | no effect on allodynia at any dose | Two | inhibition at 0.1 µM (TLR9; HEK293, 100 nM, read-out: % Inhibition (mean)): 21%; inhibition at 10 µM (TLR9; HEK293, 10 μM, read-out: % Inhibition (mean)): 71% |
| C[C@]12C=CC(=O)C=C1CC[C@@H]1[C@@H]2[C@@H](O)C[C@@]2(C)[C@H]1CC[C@]2(O)C(=O)CO [Prednisolone, reference compound] | – | – | – | – | – | – | significantly reduced EAE clinical scores | – | – | – |
